Patent US20240092770A1, “Heterocycle RMB39 Modulators” (Recursion Pharmaceuticals, Inc., priority 2022, published 2024)

What follows are molecules tested against RBM39 and the DCAF15 complex (RBM39-Flag / His-DCAF15-DDA1-DDB1) (Homo sapiens (Human), UniProt Q14498+Q66K64) (assay: DCAF15 RBM39 complex formation TR-FRET assay). Conditions: RBM39(R150-D331) 3xFlag 50 nM, His-DCAF15-DDA1-DDB1 10 nM, 60 min room temperature.
Assay type: binding
Experimental: A TR-FRET assay was used to assess the effect of compounds disclosed herein on the interaction between RBM39 and the DCAF15 complex. Test compounds were dissolved to form a 10 mM DMSO stock solution. A 45 μL aliquot of the stock solution was transferred to a 384 pp-plate, and a threefold, 8-point dilution was performed via transferring 15 μL compound solution into 30 μL of DMSO. The plates were then spun at room temperature at 1,000 RPM for 1 minute.
A 30 nL aliquot of the diluted compound was transferred to a 384 well plate, which was incubated at room temperature for 15 minutes. Next, Solutions 1, 2, and 3 were prepared as described in the below tables. A 5 μL aliquot of Solution 2 was added to each well, followed by 5 μL of Solution 3 to start the reaction. The final volume of each well was 10 μL. The plates were incubated at room temperature for 60 minutes, and then read.
Next, an RBM39 (R150-D331) 3× Flag used in TR-FRET assay was prepared:
Recombinant RBM39 protein is composed of the R1R2 of RBM39 (aa 150 to 331; UniProt: Q14498). The coding sequence was sub-cloned into pGEX4T-1-RBM39-flag vector, expressed as a GST-fusion protein with N-terminal TEV protease cleavage site. A 3× Flag tag was added to the C-terminal of R1R2 used in a FRET assay.

Question: Which EC50 does the source give for `CCc1nc(S(=O)(=O)Nc2cc(F)cc3c(C#N)c[nH]c23)c[nH]1` [Compound 157] here?
Answer: 1840 nM

Question: How did the EC50 turn out when `CCc1nc(S(=O)(=O)Nc2cccc3c(Cl)c[nH]c23)c[nH]1` [Compound 158] was run?
Answer: 433 nM

Question: Which EC50 does the source give for `O=S(=O)(Nc1ccc(F)c2c(Cl)c[nH]c12)c1nc(C(F)(F)F)cs1` [Compound 159, N-(3-chloro-4-fluoro-1H-indol-7-yl)-4-(trifluoromethyl)-1,3-thiazole-2-sulfonamide] here?
Answer: 450 nM

Question: With `Cc1nc(S(=O)(=O)Nc2cccc3c(C#N)c[nH]c23)sc1C` [Compound 160] as the molecule, how does the EC50 read?
Answer: 674 nM

Question: For `Cc1ccc(NS(=O)(=O)c2cn(CC(C)C)cn2)c2[nH]cc(C#N)c12` [Compound 161], which EC50 is on record?
Answer: 978 nM

Question: How did the EC50 turn out when `CCCn1cnc(S(=O)(=O)Nc2ccc(C)c3c(C#N)c[nH]c23)c1` [Compound 162] was run?
Answer: 591 nM

Question: Which EC50 does the source give for `N#Cc1c[nH]c2c(NS(=O)(=O)c3nc(Cl)cs3)ccc(F)c12` [Compound 163] here?
Answer: 893 nM

Question: Which EC50 does the source give for `O=S(=O)(Nc1cccc2c(C(F)(F)F)c[nH]c12)c1nccs1` [Compound 185] here?
Answer: 1010 nM

Question: With `O=S(=O)(Nc1cccc2c(C(F)(F)F)c[nH]c12)c1cncs1` [Compound 186] as the molecule, how does the EC50 read?
Answer: 258 nM

Question: With `O=S(=O)(Nc1ccc(F)c2c(Cl)c[nH]c12)c1cncs1` [Compound 187] as the molecule, how does the EC50 read?
Answer: 228 nM

Question: `Cc1ccc(NS(=O)(=O)c2cncs2)c2[nH]cc(C(F)(F)F)c12` [Compound 198] was tested. Which EC50 did it give?
Answer: 47 nM

Question: `N#Cc1c[nH]c2c(NS(=O)(=O)c3cncs3)ccc(F)c12` [Compound 199] was tested. Which EC50 did it give?
Answer: 964 nM

Question: How did the EC50 turn out when `Cc1ncc(S(=O)(=O)Nc2cccc3c(Cl)c[nH]c23)s1` [Compound 200] was run?
Answer: 207 nM

Question: Which EC50 does the source give for `Cc1ncc(S(=O)(=O)Nc2ccc(F)c3c(C#N)c[nH]c23)s1` [Compound 201] here?
Answer: 391 nM

Question: `CC(C)(O)c1ncc(S(=O)(=O)Nc2cccc3c(C#N)c[nH]c23)s1` [Compound 202] was tested. Which EC50 did it give?
Answer: 241 nM

Question: With `O=S(=O)(Nc1cccc2c(Cl)c[nH]c12)c1cncs1` [Compound 203] as the molecule, how does the EC50 read?
Answer: 583 nM

Question: Which EC50 does the source give for `O=S(=O)(Nc1cccc2c(Cl)c[nH]c12)c1cnc(C(F)F)s1` [Compound 204] here?
Answer: 130 nM

Question: `N#Cc1c[nH]c2c(NS(=O)(=O)c3cnc(N4CCOCC4)s3)cccc12` [Compound 205] was tested. Which EC50 did it give?
Answer: 632 nM

Question: With `N#Cc1c[nH]c2c(NS(=O)(=O)c3cnsc3)cccc12` [Compound 215] as the molecule, how does the EC50 read?
Answer: 420 nM

Question: `N#Cc1c[nH]c2c(NS(=O)(=O)c3cnsn3)cccc12` [Compound 254] was tested. Which EC50 did it give?
Answer: 3920 nM

Question: For `N#Cc1c[nH]c2c(NS(=O)(=O)c3cnns3)cccc12` [Compound 255], which EC50 is on record?
Answer: 1160 nM
